Source: the supplement of paper PMC8882468

Legend:
Test in all cases: CTG-3D luminescence at 96 h relative to day-0 seeding control (ratio to day 0); higher = more growth / less cytotoxicity; PDxO 3D drug screen, 96 h, CTG-3D normalised to day-0 seeding control.
HCI-025 = system: HCI-025 (organoid from a breast cancer xenograft)
HCI-010 = system: HCI-010 (organoid from a breast cancer xenograft)
HCI-008 = system: HCI-008 (organoid from a HER2-enriched breast cancer xenograft)
HCI-019 = system: HCI-019 (organoid from a triple-negative breast cancer xenograft)
HCI-027 = system: HCI-027 (organoid from a triple-negative breast cancer xenograft)
HCI-016 = system: HCI-016 (organoid from a triple-negative breast cancer xenograft)

CS(=O)(=O)c1ccc(C(=O)Nc2ccc(Cl)c(-c3ccccn3)c2)c(Cl)c1 [vismodegib]
CTG-3D luminescence at 96 h
Conditions | 12.5 pM | 0.00025 µM | 0.005 µM | 0.1 µM | 1 µM | 10 µM | 100 µM | 625 fM
HCI-008, days in culture: 228 | 1.56 | 1.74 | 1.17 | 1.72 | 1.46 | 1.46 | 0.622 | 1.79
HCI-008, days in culture: 244 | 1.7 | 2.21 | 1.95 | 2.27 | 2.19 | 2.07 | 1.01 | 2.24
HCI-010, days in culture: 52 | 1.83 | 1.98 | 2.08 | 2.26 | 2.4 | 2.15 | 0.825 | 1.78
HCI-010, days in culture: 65 | 1.54 | 1.74 | 1.56 | 1.6 | 1.71 | 1.5 | 0.574 | 1.59
HCI-010, days in culture: 103 | 2.84 | 3.06 | 3 | 3.14 | 2.91 | 2.62 | 1.52 | 2.8
HCI-016, days in culture: 153 | 3.24 | 1.78 | 2.91 | 1.54 | 2.95 | 1.79 | 0.626 | 2.46
HCI-016, days in culture: 172 | 2.24 | 1.87 | 1.95 | 1.87 | 2.13 | 1.47 | 0.75 | 2.02
HCI-016, days in culture: 190 | 2.13 | 1.28 | 1.74 | 1.58 | 1.72 | 1.66 | 0.376 | 1.7
HCI-016, days in culture: 199 | 2.04 | 1.97 | 2.17 | 2.07 | 2.19 | 2.01 | 0.655 | 2.15
HCI-019, days in culture: 110 | 1.59 | 1.68 | 1.23 | 2.46 | 1.99 | 2.18 | 1.03 | 2.06
HCI-019, days in culture: 131 | 2.17 | 2.54 | 3.59 | 3.93 | 2.82 | 2.53 | 1.56 | 3.4
HCI-019, days in culture: 152 | 3.1 | 2.87 | 2.59 | 1.83 | 2.08 | 1.82 | 0.857 | 1.86
HCI-025, days in culture: 172 | 3.09 | 1.78 | 3.88 | 2.18 | 2.97 | 1.37 | 0.368 | 2.37
HCI-025, days in culture: 209 | 1.85 | 2.63 | 2.69 | 1.56 | 2.47 | 1.4 | 0.0933 | 1.57
HCI-025, days in culture: 218 | 1.48 | 1.67 | 2.01 | 1.69 | 1.56 | 1.88 | -0.104 | 1.87
HCI-027, days in culture: 176 | 2.64 | 1.85 | 2.83 | 2.12 | 2.22 | 1.1 | -0.204 | 2.79
HCI-027, days in culture: 194 | 2.59 | 1.87 | 2.35 | 2.35 | 2.6 | 2.12 | -0.0508 | 2.34
HCI-027, days in culture: 201 | 3.03 | 3.03 | 3.44 | 2.6 | 3.36 | 1.74 | 0.019 | 3.54

C/C=C1\NC(=O)[C@H]2CSSCC/C=C/[C@H](CC(=O)N[C@H](C(C)C)C(=O)N2)OC(=O)[C@H](C(C)C)NC1=O [romidepsin]
CTG-3D luminescence at 96 h
Conditions | 12.5 pM | 0.00025 µM | 0.005 µM | 0.1 µM | 1 µM | 10 µM | 100 µM | 625 fM
HCI-008, days in culture: 228 | 1.78 | 1.7887 | 0.632 | 0.0457 | 0.0185 | 0.0061 | -0.00528 | 2.13
HCI-008, days in culture: 244 | 1.41 | 2.08 | 0.607 | 0.0448 | 0.0206 | 0.00309 | -0.0086 | 2.35
HCI-010, days in culture: 52 | 1.97 | 2.29 | 1.13 | 0.189 | 0.128 | 0.0169 | -0.00333 | 1.81
HCI-010, days in culture: 65 | 1.32 | 1.34 | 0.941 | 0.326 | 0.276 | 0.0354 | -0.00525 | 1.52
HCI-010, days in culture: 103 | 2.94 | 3.14 | 1.69 | 0.316 | 0.226 | 0.0082 | -0.00621 | 2.77
HCI-016, days in culture: 153 | 2.79 | 0.384 | 0.563 | 0.106 | 0.214 | -0.00553 | -0.0108 | 2.21
HCI-016, days in culture: 172 | 2.29 | 1.31 | 0.385 | 0.107 | 0.127 | 0.00531 | -0.0131 | 1.69
HCI-016, days in culture: 190 | 1.76 | 1.62 | 0.684 | 0.0156 | 0.0109 | -0.0529 | -0.107 | 1.55
HCI-016, days in culture: 199 | 2 | 2.14 | 0.631 | 0.071 | 0.0656 | -0.00558 | -0.0191 | 2.15
HCI-019, days in culture: 110 | 1.6 | 1.12 | 0.598 | 0.376 | 0.0772 | 0.000883 | -0.00824 | 2.26
HCI-019, days in culture: 131 | 2.29 | 2.76 | 1.06 | 0.975 | 0.441 | 0.00479 | -0.00826 | 3.05
HCI-019, days in culture: 152 | 1.95 | 1.43 | 1.55 | 0.685 | 0.489 | 0.00416 | -0.00783 | 1.53
HCI-025, days in culture: 172 | 1.84 | 1.14 | 1.58 | -0.245 | -0.354 | -0.306 | -0.318 | 1.48
HCI-025, days in culture: 209 | 1.99 | 2.87 | 1.48 | 0.312 | 0.313 | 0.034 | -0.0293 | 1.94
HCI-025, days in culture: 218 | 1.5 | 2.01 | 0.886 | -0.155 | -0.189 | -0.329 | -0.306 | 1.84
HCI-027, days in culture: 176 | 2.43 | 1.27 | 0.05 | 0.0166 | 0.376 | -0.165 | -0.237 | 2.12
HCI-027, days in culture: 194 | 2.63 | 1.95 | 0.739 | 0.437 | 0.349 | -0.0181 | -0.0853 | 2.17
HCI-027, days in culture: 201 | 3.22 | 2.72 | 1.35 | 0.611 | 0.234 | 0.136 | -0.0194 | 3.25
